Test results: ChEMBL document CHEMBL5726647, “Isoquinoline derivatives useful as inhibitors of diacylglyceride O-acyltransferase 2” (2017)

The compounds below were run against T1, Diacylglycerol O-acyltransferase 2 (Homo sapiens, UniProt Q96PD7) (assay: Enzymatic Activity Assay: DGAT2 activity was determined by measuring the amount of enzymatic product triolein (1,2,3-Tri(cis-9-octadecenoyl)glycerol) using the membrane prep mentioned above.The assay was carried out in deep well 384 plates in a final volume of 40 μL at room temperature. The assay mixture contained the following: assay buffer (100 mM Tris.Cl, pH 7.0, 20 mM MgCl2, 5% ethanol), 25 μM of diolein, 10 μM of oleoyl-CoA and 10 ng/μL of DGAT2 membrane.).
T1 sequence (Q96PD7 whole entry): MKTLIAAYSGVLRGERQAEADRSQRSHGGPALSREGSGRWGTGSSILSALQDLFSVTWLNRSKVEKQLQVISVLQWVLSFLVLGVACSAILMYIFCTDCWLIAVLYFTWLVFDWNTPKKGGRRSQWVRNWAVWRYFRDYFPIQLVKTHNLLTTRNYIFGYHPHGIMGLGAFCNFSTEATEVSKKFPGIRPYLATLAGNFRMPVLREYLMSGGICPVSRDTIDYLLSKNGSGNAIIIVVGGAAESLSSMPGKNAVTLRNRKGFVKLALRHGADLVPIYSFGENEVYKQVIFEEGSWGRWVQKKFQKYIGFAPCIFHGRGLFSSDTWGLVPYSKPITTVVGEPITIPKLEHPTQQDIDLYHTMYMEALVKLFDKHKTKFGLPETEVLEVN

IC50 [µM]	Compound
1.96	COC(=O)c1cccc(-c2ccc(CNC(=O)Nc3cccc(Cl)c3Cl)c3cnccc23)c1
1.99	COc1cccc(-c2ccc(CNC(=O)Cc3ccccc3Cl)c3cnccc23)c1
4.2	COc1cccc(-c2ccc(CNC(=O)c3ccccc3CN3C=C(O)ON3)c3cnccc23)c1
3.39	COc1cccc(-c2ccc(CNC(=O)c3ncc(Br)cn3)c3cnccc23)c1
7.61	CCOC(=O)CCc1ccc(CNC(=O)Nc2cccc(Cl)c2Cl)c2cnccc12
9.02	COc1cccc(-c2ccc(CNC(=O)Nc3cccc(Cl)c3Cl)c3ncccc23)c1
7.13	COc1cccc(-c2ccc(CNC(=O)Cc3cncc(Br)c3)c3cnccc23)c1
